Activity calls are given as the source filed them.
Tests used:
Format in all cases: functional, organism-based
Staphylococcus aureus = assay: Antibacterial activity against Staphylococcus aureus at 100 ug/ml after 16 to 20 hrs by broth microdilution method
[1] = tested on: Staphylococcus epidermidis; assay: Antibacterial activity against Staphylococcus epidermidis at 100 ug/ml after 16 to 20 hrs by broth microdilution method
Enterococcus faecalis = assay: Antibacterial activity against Enterococcus faecalis at 100 ug/ml after 16 to 20 hrs by broth microdilution method
Streptococcus pneumoniae = assay: Antibacterial activity against Streptococcus pneumoniae at 100 ug/ml after 16 to 20 hrs by broth microdilution method
Streptococcus pyogenes = assay: Antibacterial activity against Streptococcus pyogenes at 100 ug/ml after 16 to 20 hrs by broth microdilution method
Salmonella typhimurium = assay: Antibacterial activity against Salmonella Typhimurium at 100 ug/ml after 16 to 20 hrs by broth microdilution method; conditions: Salmonella enterica subsp. enterica serovar Typhimurium
Escherichia coli = assay: Antibacterial activity against Escherichia coli at 100 ug/ml after 16 to 20 hrs by broth microdilution method
Proteus vulgaris = assay: Antibacterial activity against Proteus vulgaris at 100 ug/ml after 16 to 20 hrs by broth microdilution method
Pseudomonas aeruginosa = assay: Antibacterial activity against Pseudomonas aeruginosa at 100 ug/ml after 16 to 20 hrs by broth microdilution method
Bacillus subtilis = assay: Antibacterial activity against Bacillus subtilis at 100 ug/ml after 16 to 20 hrs by broth microdilution method
Listeria monocytogenes = assay: Antibacterial activity against Listeria monocytogenes at 100 ug/ml after 16 to 20 hrs by broth microdilution method

Measured: Activity

O=c1[nH]cc(C(O)CI)c(=O)[nH]1 (stereo not drawn)
not listed: Bacillus subtilis | Listeria monocytogenes
inactive: all other assays above

O=c1[nH]cc(C(CI)OCCBr)c(=O)[nH]1 (stereo not drawn)
not listed: Bacillus subtilis | Listeria monocytogenes
inactive: all other assays above

CCCCCc1cc2c[nH]c(=O)nc2o1
inactive: all assays above

CCOC(CI)c1c[nH]c(=O)[nH]c1=O (stereo not drawn)
not listed: Bacillus subtilis | Listeria monocytogenes
inactive: all other assays above

COC(CI)c1c[nH]c(=O)[nH]c1=O (stereo not drawn)
not listed: Bacillus subtilis | Listeria monocytogenes
inactive: all other assays above

CCCCCCCCC#Cc1c[nH]c(=O)[nH]c1=O
inactive: all assays above

CCCC#Cc1c[nH]c(=O)[nH]c1=O
inactive: all assays above

CCCCCCCCCCC#Cc1c[nH]c(=O)[nH]c1=O
inactive: all assays above

O=C(O)C(I)C(O)c1c[nH]c(=O)[nH]c1=O (stereo not drawn)
not listed: Bacillus subtilis | Listeria monocytogenes
inactive: all other assays above

COC(CCl)c1c[nH]c(=O)[nH]c1=O (stereo not drawn)
not listed: Bacillus subtilis | Listeria monocytogenes
inactive: all other assays above

COC(CBr)c1c[nH]c(=O)[nH]c1=O (stereo not drawn)
not listed: Bacillus subtilis | Listeria monocytogenes
inactive: all other assays above

O=c1[nH]cc(C(CI)OCCF)c(=O)[nH]1 (stereo not drawn)
not listed: Bacillus subtilis | Listeria monocytogenes
inactive: all other assays above

O=C(O)/C=C/c1c[nH]c(=O)[nH]c1=O
not listed: Bacillus subtilis | Listeria monocytogenes
inactive: all other assays above

CCCCCCCCCCCC#Cc1c[nH]c(=O)[nH]c1=O
inactive: all assays above

CCCCCCCCCCCCC#Cc1c[nH]c(=O)[nH]c1=O
inactive: all assays above

CCCCCCCCCCc1cc2c[nH]c(=O)nc2o1
inactive: all assays above

CCCCCCCCc1cc2c[nH]c(=O)nc2o1
inactive: all assays above

O=c1[nH]cc(C(CI)OCC(F)(F)F)c(=O)[nH]1 (stereo not drawn)
not listed: Bacillus subtilis | Listeria monocytogenes
inactive: all other assays above

Reference: ChEMBL document CHEMBL1212938, “Inhibition of mycobacterial replication by pyrimidines possessing various C-5 functionalities and related 2'-deoxynucleoside analogues using in vitro and in vivo models” (J Med Chem, 2010)
